From article PMC7093416, “Selective USP7 inhibition elicits cancer cell killing through a p53-dependent mechanism” (Scientific Reports, 2020)
“And” between values parts separate entries of the source, which are not always exact repeats. Equal values may be shown once.

System: panel of 484 cancer cell lines
Assay: PRISM cancer cell line profiling, 5 days
Type: cell-based
Set-up: Viability: scale not given here; AUC: unit not given beside the values
Description: Cancer cell line profiling was performed using the Broad’s PRISM platform. Cell treatment and data analysis were performed as described in Yu et al[42]. Raw Luminex signal was converted to AUC values for each cell line as described. The resulting AUC profile for each compound was modeled against DepMap using the limma package in R[71]. Because hotspot mutation analysis was performed against DepMap, TP53 annotations in Fig. 6c,d are directly from DepMap.

[1] = GCIY_STOMACH, pert_dose 6.10E-04
[2] = GCT_SOFT_TISSUE, pert_dose 6.10E-04
[3] = GI1_CENTRAL_NERVOUS_SYSTEM, pert_dose 6.10E-04
[4] = GMS10_CENTRAL_NERVOUS_SYSTEM, pert_dose 6.10E-04
[5] = GOS3_CENTRAL_NERVOUS_SYSTEM, pert_dose 6.10E-04
[6] = HCC56_LARGE_INTESTINE, pert_dose 6.10E-04
[7] = HCC366_LUNG, pert_dose 6.10E-04
[8] = HCC1143_BREAST, pert_dose 6.10E-04
[9] = HCC1195_LUNG, pert_dose 6.10E-04
[10] = HCC1359_LUNG, pert_dose 6.10E-04
[11] = HCC1419_BREAST, pert_dose 6.10E-04
[12] = HCC1428_BREAST, pert_dose 6.10E-04
[13] = HCC1438_LUNG, pert_dose 6.10E-04
[14] = HCC1806_BREAST, pert_dose 6.10E-04
[15] = HCC4006_LUNG, pert_dose 6.10E-04
[16] = HCT15_LARGE_INTESTINE, pert_dose 6.10E-04
[17] = HCT116_LARGE_INTESTINE, pert_dose 6.10E-04
[18] = HDQP1_BREAST, pert_dose 6.10E-04

SMILES: COc1ccc(C2=N[C@@H](c3ccc(Cl)cc3)[C@@H](c3ccc(Cl)cc3)N2C(=O)N2CCNC(=O)C2)c(OC(C)C)c1 [Nutlin-3A]
- AUC (FTC238_THYROID): 1.264
- MFI FTC238_THYROID (FTC238_THYROID, pert_dose 6.10E-04): 2880 and 3372 and 2980.5 and 2950.5 and 4003.5
- AUC (G292CLONEA141B1_BONE): 1.148
- AUC (G361_SKIN): 1.031
- MFI G361_SKIN (G361_SKIN, pert_dose 6.10E-04): 10064 and 9507.5 and 5703 and 7102 and 9477
- AUC (G401_SOFT_TISSUE): 0.8138
- AUC (G402_SOFT_TISSUE): 0.8312
- MFI G402_SOFT_TISSUE (G402_SOFT_TISSUE, pert_dose 6.10E-04): 8566 and 7883 and 9123.5 and 10028.5 and 7843.5
- AUC (GAMG_CENTRAL_NERVOUS_SYSTEM): 1.104
- AUC (GB1_CENTRAL_NERVOUS_SYSTEM): 1.08
- MFI GB1_CENTRAL_NERVOUS_SYSTEM (GB1_CENTRAL_NERVOUS_SYSTEM, pert_dose 6.10E-04): 8797 and 10917.5 and 10369 and 11626 and 6173
- AUC (GCIY_STOMACH): 1.0178
- MFI GCIY_STOMACH [1]: 10513.5 and 10287.5 and 8158.5 and 7393 and 6559.5
- Viability [1]: 1.05
- AUC (GCT_SOFT_TISSUE): 1.1243
- MFI GCT_SOFT_TISSUE [2]: 30402 and 32248 and 27974 and 25401 and 26115.5
- Viability [2]: 1.1
- AUC (GI1_CENTRAL_NERVOUS_SYSTEM): 1.1989
- MFI GI1_CENTRAL_NERVOUS_SYSTEM [3]: 7007.5 and 7677 and 5613.5 and 9782 and 8476.5
- Viability [3]: 1.209
- AUC (GMS10_CENTRAL_NERVOUS_SYSTEM): 1.196
- MFI GMS10_CENTRAL_NERVOUS_SYSTEM [4]: 2195 and 3287.5 and 2615 and 2263.5 and 2230
- Viability [4]: 0.8757
- AUC (GOS3_CENTRAL_NERVOUS_SYSTEM): 0.8893
- MFI GOS3_CENTRAL_NERVOUS_SYSTEM [5]: 16506.5 and 12732.5 and 12479 and 15312 and 16884
- Viability [5]: 1.256
- AUC (GP2D_LARGE_INTESTINE): 0.8664
- AUC (H4_CENTRAL_NERVOUS_SYSTEM): 0.8741
- AUC (HARA_LUNG): 1.148
- MFI HARA_LUNG (HARA_LUNG, pert_dose 6.10E-04): 10420 and 10731 and 9850 and 12219 and 8432
- Viability (HARA_LUNG, pert_dose 6.10E-04): 1.156
- AUC (HCC15_LUNG): 1.083
- MFI HCC15_LUNG (HCC15_LUNG, pert_dose 6.10E-04): 10708.5 and 9658 and 9646.5 and 7600 and 8929.5
- AUC (HCC38_BREAST): 1.13
- AUC (HCC44_LUNG): 1.143
- MFI HCC44_LUNG (HCC44_LUNG, pert_dose 6.10E-04): 8858.5 and 14957 and 12427 and 9895 and 9714
- Viability (HCC44_LUNG, pert_dose 6.10E-04): 0.9479
- AUC (HCC56_LARGE_INTESTINE): 1.116
- MFI HCC56_LARGE_INTESTINE [6]: 22390 and 19383.5 and 18019.5 and 16274 and 12370
- Viability [6]: 1.19
- AUC (HCC78_LUNG): 1.129
- MFI HCC78_LUNG (HCC78_LUNG, pert_dose 6.10E-04): 13938.5 and 17123.5 and 16093 and 13546.5 and 12989
- Viability (HCC78_LUNG, pert_dose 6.10E-04): 1.137
- AUC (HCC95_LUNG): 1.133
- MFI HCC95_LUNG (HCC95_LUNG, pert_dose 6.10E-04): 19085 and 17009 and 14223 and 15820 and 14624.5
- Viability (HCC95_LUNG, pert_dose 6.10E-04): 1.3736
- AUC (HCC366_LUNG): 1.1015
- MFI HCC366_LUNG [7]: 3176 and 4976 and 3338 and 4080 and 5551.5
- Viability [7]: 0.8601
- AUC (HCC827_LUNG): 1.216
- AUC (HCC1143_BREAST): 1.173
- MFI HCC1143_BREAST [8]: 10292 and 10056.5 and 12994 and 8725 and 11412
- Viability [8]: 1.09
- AUC (HCC1195_LUNG): 0.9896
- MFI HCC1195_LUNG [9]: 3248 and 2450 and 2557 and 3311 and 2339
- Viability [9]: 0.8066
- AUC (HCC1359_LUNG): 1.205
- MFI HCC1359_LUNG [10]: 3254.5 and 3202.5 and 4282 and 3759 and 4252
- Viability [10]: 1.0552
- AUC (HCC1419_BREAST): 1.157
- MFI HCC1419_BREAST [11]: 4554 and 3766 and 6250 and 4022 and 3342
- Viability [11]: 1.3281
- AUC (HCC1428_BREAST): 1.0418
- MFI HCC1428_BREAST [12]: 5601.5 and 4304.5 and 6512 and 4295 and 6602.5
- Viability [12]: 0.9769
- AUC (HCC1438_LUNG): 1.064
- MFI HCC1438_LUNG [13]: 3705.5 and 4037.5 and 3791 and 2958 and 2338
- Viability [13]: 1.029
- AUC (HCC1588_LUNG): 0.8674
- MFI HCC1588_LUNG (HCC1588_LUNG, pert_dose 6.10E-04): 12748 and 13169 and 10479 and 16252.5 and 12413.5
- AUC (HCC1806_BREAST): 1.223
- MFI HCC1806_BREAST [14]: 4998.5 and 5222.5 and 6609 and 6768 and 3833.5
- Viability [14]: 1.444
- AUC (HCC1937_BREAST): 1.259
- Viability (HCC1937_BREAST, pert_dose 6.10E-04): 0.8468
- AUC (HCC4006_LUNG): 1.075
- MFI HCC4006_LUNG [15]: 13511 and 17514.5 and 15021 and 17956 and 15891.5
- Viability [15]: 1.081
- AUC (HCT15_LARGE_INTESTINE): 1.231
- MFI HCT15_LARGE_INTESTINE [16]: 19712 and 17910 and 19958 and 21240.5 and 15477
- Viability [16]: 1.456
- AUC (HCT116_LARGE_INTESTINE): 0.9703
- MFI HCT116_LARGE_INTESTINE [17]: 29799 and 33721.5 and 25531.5 and 28789.5 and 30554.5
- Viability [17]: 1.204
- AUC (HDQP1_BREAST): 1.144
- MFI HDQP1_BREAST [18]: 7912.5 and 7534 and 9203 and 8805.5 and 8820
- Viability [18]: 1.159
- AUC (HEC1A_ENDOMETRIUM): 0.9522
- AUC (HEC1B_ENDOMETRIUM): 1.073
- Viability (HEC1B_ENDOMETRIUM, pert_dose 6.10E-04): 0.9409
- AUC (HEC6_ENDOMETRIUM): 1.185
